Columns and labels:
Details in all cases: 72 h
Vero E6 [1] = test: drug sensitivity score (DSS) for viability; higher = more toxic; extreme values may be limits of the assay
U2OS [2] = test: as above
Caco-2 [3] = test: as above
HepG2 [4] = test: as above
Vero E6 [5] = test: cell viability relative to DMSO; higher = less toxic
U2OS [6] = test: as above
Caco-2 [7] = test: as above
HepG2 [8] = test: as above
Vero E6 [9] = test: relative viability EC50 (midpoint between 100% and the lowest measured viability); higher = less toxic
U2OS [10] = test: as above
Caco-2 [11] = test: as above
HepG2 [12] = test: as above
Calu-3 [13] = test: drug sensitivity score (DSS) for viability; higher = more toxic; extreme values may be limits of the assay
Calu-3 [14] = test: cell viability relative to DMSO; higher = less toxic
Calu-3 [15] = test: relative viability EC50 (midpoint between 100% and the lowest measured viability); higher = less toxic

Row | SMILES | drug sensitivity score (Vero E6 [1]) | drug sensitivity score (U2OS [2]) | drug sensitivity score (Caco-2 [3]) | drug sensitivity score (HepG2 [4]) | cell viability (Vero E6 [5]; 1 nM) [%] | cell viability (Vero E6 [5]; 10 nM) [%] | cell viability (Vero E6 [5]; 100 nM) [%] | cell viability (Vero E6 [5]; 1000 nM) [%] | cell viability (Vero E6 [5]; 10000 nM) [%] | cell viability (U2OS [6]; 1 nM) [%] | cell viability (U2OS [6]; 10 nM) [%] | cell viability (U2OS [6]; 100 nM) [%] | cell viability (U2OS [6]; 1000 nM) [%] | cell viability (U2OS [6]; 10000 nM) [%] | cell viability (Caco-2 [7]; 1 nM) [%] | cell viability (Caco-2 [7]; 10 nM) [%] | cell viability (Caco-2 [7]; 100 nM) [%] | cell viability (Caco-2 [7]; 1000 nM) [%] | cell viability (Caco-2 [7]; 10000 nM) [%] | cell viability (HepG2 [8]; 1 nM) [%] | cell viability (HepG2 [8]; 10 nM) [%] | cell viability (HepG2 [8]; 100 nM) [%] | cell viability (HepG2 [8]; 1000 nM) [%] | cell viability (HepG2 [8]; 10000 nM) [%] | relative viability EC50 (Vero E6 [9]) [µM] | relative viability EC50 (U2OS [10]) [µM] | relative viability EC50 (Caco-2 [11]) [µM] | relative viability EC50 (HepG2 [12]) [µM] | drug sensitivity score (Calu-3 [13]) | cell viability (Calu-3 [14]; 1 nM) [%] | cell viability (Calu-3 [14]; 10 nM) [%] | cell viability (Calu-3 [14]; 100 nM) [%] | cell viability (Calu-3 [14]; 1000 nM) [%] | cell viability (Calu-3 [14]; 10000 nM) [%] | relative viability EC50 (Calu-3 [15]) [µM]
1 | CO[C@H]1CC[C@@H](C(=O)c2ccc3nc4c(cc3c2)CCCO4)CC1 | 0 | 0 | 0 | 0 | 102 | 103 | 93.1 | 99 | 100 | 99.8 | 93.8 | 104 | 97.8 | 101 | 90.8 | 90.3 | 104 | 99.2 | 92.7 | 99.5 | 107 | 104 | 102 | 104 | > 10 | > 10 | > 10 | > 10 | – | – | – | – | – | – | –
2 | N#Cc1c(-c2ccccc2)cc(-c2cc(Br)ccc2O)[nH]c1=O [TCS-PIM-1-1] | 0 | 0 | 0.1 | 0 | 96.9 | 101 | 95.5 | 96 | 93.1 | 99 | 96.3 | 102 | 97.6 | 93.9 | 96.7 | 101 | 104 | 97.5 | 88.8 | 94.9 | 99.4 | 99.7 | 94.5 | 99.2 | > 10 | > 10 | > 10 | > 10 | – | – | – | – | – | – | –
3 | Cc1ccc(C(=O)Cn2c3c(sc2=N)CCCC3)cc1 [pifithrin-alpha] | 0 | 0 | 0 | 0 | 98.9 | 97.2 | 100 | 98.9 | 96.1 | 96.6 | 97.5 | 92.9 | 94.4 | 93.5 | 102 | 89.9 | 97.1 | 99.3 | 90.1 | 106 | 97.3 | 101 | 100 | 99 | > 10 | > 10 | > 10 | > 10 | – | – | – | – | – | – | –
4 | COC(=O)/C=C/c1cc(O)ccc1O [erbstatin-analog] | 7.6 | 3.9 | 4.1 | 2.5 | 98.8 | 96.1 | 94.7 | 74.8 | 22.6 | 101 | 103 | 95.2 | 97.4 | 34.8 | 97.7 | 102 | 91.8 | 94.3 | 40.9 | 92 | 101 | 99.8 | 102 | 50 | 1.41 | 2.86 | 2.37 | 3.37 | 1.2 | 113 | 97.6 | 106 | 99.2 | 73.3 | –
5 | COc1ccc(OC)c(CN(C(C)=O)c2cc(F)ccc2Oc2ccccc2)c1 [DAA-1106] | 0 | 0 | 0.9 | 0 | 102 | 99 | 103 | 107 | 101 | 102 | 107 | 100 | 96.5 | 93.6 | 93.4 | 112 | 93.1 | 108 | 71.4 | 102 | 105 | 99.2 | 95.7 | 96 | > 10 | > 10 | – | > 10 | 0 | 103 | 102 | 93.7 | 98.5 | 98.1 | > 10
6 | Cc1ccc(F)c(NC(=O)Nc2ccc(-c3cccc4[nH]nc(N)c34)cc2)c1 [linifanib] | 0 | 0 | 0 | 12.8 | 93.1 | 101 | 99.9 | 103 | 110 | 97.4 | 96.6 | 101 | 96.5 | 92.2 | 101 | 100 | 101 | 89.5 | 106 | 94.1 | 110 | 115 | 29.9 | 13.1 | > 10 | > 10 | > 10 | 0.583 | 2.7 | 106 | 89.4 | 99.1 | 86.9 | 69.9 | –
7 | C[C@@H]1CN(Cc2ccc(F)cc2)CCN1C(=O)COc1ccc(Cl)cc1NC(N)=O | 0 | 1.9 | 3.6 | 10.8 | 103 | 113 | 93.3 | 104 | 93 | 103 | 96.1 | 99.3 | 95 | 72.8 | 98.2 | 95.7 | 92.9 | 81.3 | 66.6 | 93.3 | 101 | 87.7 | 51.9 | 19.1 | > 10 | – | – | 0.635 | 0.1 | 97.1 | 104 | 98.1 | 104 | 85 | > 10
8 | O=C1NC(=O)/C(=C/c2ccc(-c3ccc(F)cc3O)o2)S1 | 0.5 | 0 | 0.9 | 0 | 102 | 100 | 99.3 | 100 | 81.2 | 103 | 101 | 91 | 104 | 91.2 | 94 | 103 | 96.3 | 105 | 72.5 | 96.2 | 96.2 | 95.9 | 96.6 | 106 | > 10 | > 10 | – | > 10 | 1 | 116 | 109 | 102 | 98.2 | 77 | > 10

Reference: the supplement of paper PMC13380429
